Data: patent US8188075B2, “Triazole compounds that modulate HSP90 activity” (Synta Pharmaceuticals Corp., priority 2006, dated 2012)

Assays:
HUVEC = HUVEC killing (separate reference experiment); type: cell-based; conditions: Homo sapiens
[1] = tested on: human umbilical vein endothelial cell (HUVEC); assay: in vitro HUVEC migration assay (time-lapse imaging of scraped confluent cultures); type: cell-based
Method: To examine if the compounds of the invention affect endothelial cell function, an in vitro human umbilical vein endothelial cell (HUVEC) migration assay was performed in the presence of Compound 226. HUVEC cells (ATCC, VA) (passage number 4) were cultured in EGM2 medium (Cambrex, Mass.) on 12-well plates and performed time-lapse imaging with the live cell imaging system on an inverted microscope supplied with 6-7% CO2. The temperature was kept at 37° C. Images were taken every 30 minutes using the 2× objective for up to 106 hr (results in FIGS. 1, 2 and 3), or, every 60 seconds using the 20× objective for 30 min (for FIG. 4). Confluent HUVEC cultures were scraped similarly to make a blank area, followed by culturing in HUVEC medium for 15 hr without treatment. The migration areas, which were imaged as time-lapse sequences for each well, were used as a basis to standardize/correct migration rates. Then, migration of cells under different treatments was imaged at the same time to generate time-lapse image sequences for each well. Time-lapse movies were further analyzed by measuring areas that were covered by migrating cells. […] The red lines indicate the front lines of migrating cells. DMSO (1:100) treated cells migrated rapidly and covered the entire blank (wounded) area at 106 hr. […] During experiments, HUVEC cells were activated by the presence of VEGF (Cambrex, Mass.) and basic FGF (Cambrex, Mass.).
In addition to the analysis of HUVEC cell migration, HUVEC behavior was also tracked during above treatments.

[2] = tested on: VE-cadherin junctions between HUVEC cells; assay: immunofluorescence study of VE-cadherin junctions between HUVEC cells; type: cell-based, human; conditions: 24 hrs
Method: An immunofluorescence study was performed by using anti-VE-cadherin antibodies (1:1 mixed, obtained from Amersham Biosciences, NJ, and Santa Cruz Biotechnology, CA) to examine VE-cadherin junctions between HUVEC cells. HUVEC cells were treated with DMSO or Compound 226 (10, 100 and 1000 nM) for 24 hrs and fixed for immunostaining. DMSO concentration was 1:100 for all treatments. To boost the immunofluorescence signal, cells were stained with a mixture of 2 polyclonal anti-human VE-cadherin Abs followed by staining with a mixture of fluorescent secondary antibodies. […] Non-DMSO treated cells gave a similar result to those with DMSO treatment (data not shown). […] This effect could result in limited motility of the cells and reducing permeability of the endothelium, thus contributing to the cell migration inhibition and the potential anti-angiogenesis effect of Compound 226.

Structure (SMILES): CC(C)c1cc(-c2nnc(O)n2-c2ccc3c(ccn3C)c2)c(O)cc1O [Compound 226, 3-(2,4-dihydroxy-5-isopropyl-phenyl)-4-(1-methyl-indol-5-yl)-5-hydroxy-[1,2,4] triazole]
- IC50 (HUVEC): ~800 nM
- migration of HUVEC cells to the blank area ([1]; 100 nM and 1 μM, up to 106 hr, compared to DMSO, cells activated by VEGF and basic FGF): completely blocked migration
- HUVEC cell-cell contact lines (morphology) ([1]; 100 nM, 2× and 20× magnification (FIG. 4)): Cell-cell contact lines disappeared
- movement of HUVEC cells in time-lapse videos (20× objective) ([1]; 100 nM, versus DMSO treated cells): significantly reduced movement
- IC50 ([1]; Homo sapiens, HUVEC, estimated from similar covered areas at 100 nM and 1 μM (FIG. 2), read-out: IC50 of the inhibition of HUVEC migration): < 100 nM
- HUVEC cell shrinkage ([1]; after 24 hr treatment with 100 nM and 1 μM): began to shrink
- cell death of HUVEC during migration assay ([1]; at 24 hr (FIG. 3)): no significant cell death
- HUVEC cell survival ([1]; at 48 hr, 1 μM): majority of cells were alive
- VE-cadherin staining in cell-cell junction regions ([2]; 10 nM, compared to DMSO): extremely strong
- VE-cadherin staining areas ([2]; 100 nM): further increase the VE-cadherin staining areas
- VE-cadherin molecules distribution ([2]; 1 μM): Aggregations of VE-cadherin molecules appeared
